From patent publication US20220340597A1, “HEXAHYDRO-1H-PYRAZINO[1,2-A]PYRAZINE COMPOUNDS FOR THE TREATMENT OF AUTOIMMUNE DISEASE” (Hoffmann-La Roche Inc., priority 2019, published 2022)

Molecular target: T1, human TLR7 (Homo sapiens, UniProt Q9NYK1)
T1 construct: host or cells: HEK293 (HEK-Blue hTLR7)
T1 sequence (Q9NYK1 27-1049): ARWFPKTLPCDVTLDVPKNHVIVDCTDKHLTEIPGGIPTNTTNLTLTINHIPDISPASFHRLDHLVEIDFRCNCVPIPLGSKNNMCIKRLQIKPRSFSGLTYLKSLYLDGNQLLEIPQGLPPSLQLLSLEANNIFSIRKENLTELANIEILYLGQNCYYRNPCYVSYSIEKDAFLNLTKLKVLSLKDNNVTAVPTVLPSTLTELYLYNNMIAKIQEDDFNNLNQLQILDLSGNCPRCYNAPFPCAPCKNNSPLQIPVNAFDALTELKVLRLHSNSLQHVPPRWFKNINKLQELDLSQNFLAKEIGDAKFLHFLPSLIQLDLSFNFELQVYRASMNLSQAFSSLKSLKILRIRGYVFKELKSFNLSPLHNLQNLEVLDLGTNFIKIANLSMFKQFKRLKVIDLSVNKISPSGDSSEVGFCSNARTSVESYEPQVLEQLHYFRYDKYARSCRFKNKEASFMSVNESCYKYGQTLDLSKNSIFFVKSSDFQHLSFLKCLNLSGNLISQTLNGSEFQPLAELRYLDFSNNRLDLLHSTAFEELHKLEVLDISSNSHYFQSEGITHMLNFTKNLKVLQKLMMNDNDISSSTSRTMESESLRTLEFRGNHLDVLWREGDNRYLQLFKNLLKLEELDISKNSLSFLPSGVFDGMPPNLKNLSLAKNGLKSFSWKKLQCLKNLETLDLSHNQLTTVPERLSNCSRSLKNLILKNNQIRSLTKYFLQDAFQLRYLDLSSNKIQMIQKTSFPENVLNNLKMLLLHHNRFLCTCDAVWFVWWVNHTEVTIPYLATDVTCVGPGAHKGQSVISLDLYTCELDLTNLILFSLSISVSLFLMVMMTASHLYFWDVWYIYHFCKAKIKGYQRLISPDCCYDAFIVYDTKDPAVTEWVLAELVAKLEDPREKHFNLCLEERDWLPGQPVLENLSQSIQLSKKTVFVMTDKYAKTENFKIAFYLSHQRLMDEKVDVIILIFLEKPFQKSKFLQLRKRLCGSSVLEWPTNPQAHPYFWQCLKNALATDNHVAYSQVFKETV
Assay: HEK293-Blue-hTLR-7 cells assay
Type: cell-based
Conditions: HEK293-Blue-hTLR7 cells, R848 stimulation, 20 hrs, SEAP reporter; read-out: HEK/hTLR7 IC50

Row | IC50 [nM] | SMILES
1 | 24 | [2H]c1ccc2c(N3C[C@@H]4CN(Cc5ccc(N6C[C@H]7NCCO[C@@H]7C6)nc5C)CCN4[C@H](C)C3)ccc(C#N)c2n1 [Example 98, 5-[(4R,9aS)-8-[[6-[(4aR,7aR)-3,4,4a,5,7,7a-hexahydro-2H-pyrrolo[3,4-b][1,4]oxazin-6-yl]-2-methyl-3-pyridyl]methyl]-4-methyl-3,4,6,7,9,9a-hexahydro-1H-pyrazino[1,2-a]pyrazin-2-yl]-2-deuterio-quinoline-8-carbonitrile]
2 | 1 | [2H]c1ccc2c(N3C[C@@H]4CN(c5ncc(N6C[C@@H](N)[C@H](OC)C6)cc5C)CCN4[C@H](C)C3)ccc(C#N)c2n1 [Example 99, 5-[(4R,9aR)-8-[5-[(3R,4R)-3-amino-4-methoxy-pyrrolidin-1-yl]-3-methyl-2-pyridyl]-4-methyl-3,4,6,7,9,9a-hexahydro-1H-pyrazino[1,2-a]pyrazin-2-yl]-2-deuterio-quinoline-8-carbonitrile]
3 | 1 | [2H]c1ccc2c(N3C[C@@H]4CN(c5ncc(N6C[C@H]7NCCO[C@@H]7C6)cc5C)CCN4[C@H](C)C3)ccc(C#N)c2n1 [Example 100, 5-[(4R,9aR)-8-[5-[(4aR,7aR)-3,4,4a,5,7,7a-hexahydro-2H-pyrrolo[3,4-b][1,4]oxazin-6-yl]-3-methyl-2-pyridyl]-4-methyl-3,4,6,7,9,9a-hexahydro-1H-pyrazino[1,2-a]pyrazin-2-yl]-2-deuterio-quinoline-8-carbonitrile]
